Data from patent US5591773A, “Inhibition of cataract formation, diseases resulting from oxidative stress, and HIV replication by caffeic acid esters” (priority 1994, dated 1997).
Several values for one entry are separate records, joined by “and”; a condition that tells them apart may be missing. Equal entries are not always repeated. Entries after “also recorded” stand apart in the source; their conditions may differ.

Experiments:
[1] = test system: TPA-induced PMN infiltration in mouse skin (MPO); assay: TPA-induced PMN infiltration (MPO) in dorsal skin of SENCAR mice; type: in vivo
Description: (§1) FIGS. 2A-2D. CAPE-mediated inhibition of TPA-induced oxidative processes in SENCAR mice. Mice were topically treated with 6.5 nmol CAPE 30 min prior to 6.5 nmol TPA, and this regimen was repeated 20 h later. Mice were sacrificed 1 h after the last treatment and the skin removed for determination of: (FIG. 2A) PMN infiltration (by measuring myeloperoxidase (MPO)); (FIG. 2B) H2 O2; (FIG. 2C) HMdUrd (HMdU); and (FIG. 2D) 8-OHdGua (8-OHdG), according to procedures described in the "Experimental Details" Section, infra. .quadrature., controls treated with acetone in place of CAPE and TPA; , treatment with acetone followed by TPA; .box-solid., treatment with CAPE followed by TPA. Results are expressed as mean ± SE (bars) from two experiments (2 mice/experiment) in the CAPE series. Data for acetone (ACT)- and TPA-treated mean values were collected from over 20 experiments.
A) Treatment of Animals and Assays. Female SENCAR (6-8 weeks old) and CD-1 mice (about 7 weeks old) were purchased from Biological Testing, National Cancer Institute (Frederick, Md.) and from Charles River Laboratory (Stone Ridge, N.Y.), respectively. The mice were acclimated for at least 1 week before use. They were subjected to a 12-h light/12-h dark cycle, housed at 20°±2° C. in a room with 10 cycles of air exchanges/h, given food and water ad libitum, and observed for any indication of ill health. Before topical application of any test agents, their backs were shaved and only those without hair growth after 48 h were used.
(§2) C) MPO, H2 O2, and Oxidized DNA Bases. SENCAR mice were pretreated with CAPE for 30 min; then 6.5 nmol (4 μg) TPA/mouse topically applied to the dorsal skin. After 20 h, the CAPE and TPA treatment (1x) was repeated (2x treatment). One h after the second treatment, the mice were sacrificed by cervical dislocation, and 12.5-mm punches were obtained to be used separately for MPO and H2 O2 determinations. The remainder of the treated mouse skin or the combined skins from two mice were used for separation of epidermal cells. This was done by heating the skin at 55° C. for 30 s followed by rapid immersion into an ice-cold water bath (45). After the epidermis was scraped off, the presence of oxidized DNA base derivatives was measured in the epidermal DNA. All of these end points were analyzed by published procedures and are briefly described below.
(§3) The assay for MPO was carried out according to the procedure of Metcalf et al. (53) with some modifications (20), and the results are expressed as units/cm^2, where a unit is defined as that degrading 1 μmol H2 O2 /min at 25° C. The presence of MPO in the mouse ears was measured in the homogenates. They were prepared by mincing the ears and homogenizing them in an ice-cold water bath with a polytron homogenizer, either twice for 20 s each or three times for 10 s each. Each homogenate was analyzed in duplicate and the results are expressed as mean MPO (units/mg protein) ±SE for each of the homogenates.
(§4) ^a Mice were treated as described in the legend to FIG. 2, except tha

[2] = test system: TPA-induced H2O2 production in mouse skin; assay: TPA-induced H2O2 production in skin of SENCAR mice; type: in vivo
Description: as §1, §2
Punches used for H2 O2 determination were immediately minced with scissors in cold 50 mM phosphate buffer, pH 7.0, containing 10 mM azide that is needed for inhibition of catalase. They were then homogenized, and centrifuged at 4° C. and the supernatants were stored at -80° C. for up to 1 week. H2 O2 was measured in freshly thawed supernatants using horseradish peroxidase-mediated oxidation of phenol red (21), and the results are expressed as nmol H2 O2 /cm^2 /10-min incubation. Although organic hydroperoxides also can be generated under these conditions (45), we find that H2 O2 constitutes a great majority of the oxidants generated because 60-85% of the oxidants produced are catalase inhibitable (21).
as §4

[3] = test system: TPA-induced PMN infiltration in SENCAR mouse ears (MPO); assay: TPA-induced PMN infiltration (MPO) in mouse ears; type: in vivo, SENCAR mice; conditions: for MPO in mouse ears, TPA only: TPA 0.4 nmol/ear, 5 h
Description: FIG. 3. Effect of CAPE on TPA-induced PMN infiltration and edema in SENCAR mouse ears. These were paired experiments, in which both ears of each mouse (8-9/group) were treated with 0.4 nmol TPA±CAPE in 20 μl acetone, and the mice were sacrificed 5 h later. (A) One ear was frozen for subsequent determination of MPO (a measure of PMN infiltration). (B) A punch (6 mm diameter) was taken from the second ear and weighed to measure edematous response (weight of sample minus weight of control). (A) Ears of each group (7-9/group) were separately minced and homogenized under different conditions as described in the "Experimental Details" Section, infra. MPO was determined in duplicate. MPO was undetectable in acetone controls and was 4.13±0.0 units/mg protein and 1.18±0.1 units/mg protein in the 2 homogenates of TPA-only-treated mice. CAPE-mediated inhibition was calculated versus the appropriate TPA-only sample, which was homogenized the same way. (B) Weights of ear punches (8-9/group, each determined separately). Acetone controls, 7.2±0.1 mg; TPA in acetone, 16.7±0.7 mg.
B) Edema Determination. Both ears of SENCAR mice (7-9 mice/group) were treated with 0.4 nmol TPA in 20 μl acetone alone or together with added 0.1 nmol, 0.3 nmol, or 1 μmol CAPE. […] The mice were sacrificed by cervical dislocation 5 h after treatment, and edema was measured on one mouse ear, while the second ear was immediately frozen and later analyzed for PMN infiltration by quantifying myeloperoxidase (MPO) (see below). Ear edema (increased weight of ear punches) was determined as previously described (24). Edema was expressed as mg/6 mm (diameter) ear punch±SE.
as §3, with “They were prepared by mincing the ears and homogenizing them in an ice-cold water bath with a polytron homogenizer, either twice for 20 s each or three times for 10 s each.” left out

[4] = test system: mouse skin; conditions: cited from earlier work
[5] = test system: HRPO; assay: Degradation of H2O2 / inhibition of HRPO; type: biochemical; conditions: unpublished results of Bhimani and Frenkel
[6] = test system: Fischer cloned rat embryo fibroblasts; conditions: cited from earlier work
[7] = test system: NIH 10T1/2, Ltk^- and rat 6 cells transformed with T24 oncogene; conditions: cited from earlier work
[8] = test system: untransformed rat 6 cells; conditions: cited from earlier work
[9] = test system: transformed cells; conditions: cited from earlier work
[10] = test system: normal tissue; conditions: cited from earlier work

SMILES | MPO ([1]; TPA alone, 6.5 nmol, mean ± SE (spread on next printed line: 7.6)) [units/cm^2 skin] | H2O2 ([2]; TPA alone, 6.5 nmol, SE 0.7 on next line) [nmol/cm^2 skin] | MPO in mouse ears, TPA only ([3]; first of 2 homogenates) [units/mg protein] | MPO in mouse ears, TPA only ([3]; second of 2 homogenates) [units/mg protein] | H2O2 production and oxidation of DNA bases in vivo (in words) [4] | decrease of TPA-induced PMN infiltration ([1]; CAPE 6.5 nmol 30 min before each of two TPA 6.5 nmol applications, SENCAR mouse skin) | MPO ([1]; CAPE 6.5 nmol pretreatment then TPA 6.5 nmol, 2x, (4 experiments), SE 0.3 on next line) [units/cm^2 skin] | MPO ([1]; CAPE 650 nmol pretreatment then TPA 6.5 nmol, 2x, (4 experiments), SE 2.0 on next line) [units/cm^2 skin] | TPA-mediated PMN infiltration and formation of HMdUrd and 8-OHdGua at high dose (in words) ([1]; CAPE 650 nmol/treatment, 2x, 20 h apart, vs 6.5 nmol) | H2O2 ([2]; CAPE 6.5 nmol then TPA 6.5 nmol, 2x, (5 experiments), SE 2.2 on next line) [nmol/cm^2 skin] | inhibition of TPA-induced H2O2 formation ([2]; CAPE 6.5 nmol, TPA 6.5 nmol, 2x, SENCAR mouse skin) [%] | H2O2 ([2]; CAPE 650 nmol then TPA 6.5 nmol, 2x, (5 experiments), SE 0.6 on next line) [nmol/cm^2 skin] | H2O2 levels at high dose (in words) ([2]; CAPE 650 nmol/treatment vs 6.5 nmol) | suppression of TPA-induced PMN infiltration, ear ([3]; CAPE 0.1 nmol/ear, TPA 0.4 nmol) [%] | degradation of H2O2 or inhibition of HRPO (in words) [5] | inhibition of adenovirus type 5 E1A-mediated transformation; cytotoxicity (in words) [6] | growth inhibition (in words) [7] | growth inhibition, untransformed rat 6 cells (in words) [8] | selective toxicity (in words) [9] | toxicity to normal tissue (in words) [10]
CCCCCCCCCCCCCC(=O)O[C@@H]1[C@@H](C)[C@@]2(O)[C@@H](C=C(CO)C[C@]3(O)C(=O)C(C)=C[C@@H]23)[C@@H]2C(C)(C)[C@]12OC(C)=O [TPA, 12-O-tetradecanoylphorbol-13-acetate] | 23.7 | 31.5 | 4.13±0.0 | 1.18±0.1 | induce H2 O2 production in mouse skin as well as cause oxidation of DNA bases in vivo |  |  |  |  |  |  |  |  |  |  |  |  |  |  | 
O=C(/C=C/c1ccc(O)c(O)c1)OCCc1ccccc1 [CAPE, Caffeic acid phenethyl ester] |  |  |  |  |  | ≈ 85% and 85% | 5.9 | 10.8 | this reduction was not as effective as that caused by the lower (6.5 nmol) dose of CAPE | 15.7 | 86 | 11.6 | further decreased | ~50 | does not degrade H2 O2 or inhibit HRPO | inhibit the transformation mediated by adenovirus type 5 E1A; also recorded: more cytotoxic to transformed Fischer cloned rat embryo fibroblasts than to wild type cells | inhibited | but not that of the untransformed rat 6 cells | selectively toxic to transformed cells but not to normal cells | not toxic to normal tissue
